In patent US8828993B2, “Psychotropic agents having glutamate NMDA activity” (Ramot At Tel-Aviv University Ltd., priority 2006, dated 2014):
Entries after “also recorded” stand apart in the source; their conditions may differ.

Columns and labels:
Format in all cases: in vivo
[1] = test system: mice; test: Open field exploratory locomotor activity
Text: Open Field Exploratory Locomotor Activity
The procedure consists of subjecting an animal, usually a rodent, to an unknown large environment from which escape is prevented by surrounding walls. The open field test is now one of the most popular procedures in animal psychology (Crawley, et al., Exploratory behavior models of anxiety in mice, Neurosci Biobehav Rev 9 (1985), pp. 37-44). The procedure involves forced confrontation of a rodent with the situation. The animal is placed in the center or close to the walls of the apparatus and the following behavioral items are recorded for a period ranging from 5 to 20 minutes: horizontal locomotion, and frequency of rearing or leaning. In such a situation, rodents spontaneously prefer the periphery of the apparatus to activity in the central parts of the open field. Increase in time spent in the central part as well as of the ratio central/total locomotion or decrease of the latency to enter the central part are indications of anxiolysis.
In a typical test, an individual mouse was placed in a novel environment of a square open field (50×50 cm), the floor of which had been divided into 3 areas, as shown below. The area within 10 cm of the chamber walls was termed the periphery. […] One hour after drug administration, the animal was placed in the same corner of the field. The animal behavior in the open field was recorded by videotaping for 20-60 minutes and analyzed subsequently digitally using the Noldus software for animal behavior. The measurements included velocity, distance moved, frequency of visits to the central area, number of rearing events.
The effect of Compound 1 on the behavior of mice in the open field and the dose-dependent effect following i.p administration were evaluated. Naïve male Mice (Balb/c, Harlan Israel) were used. The animals, divided 3 to 5 animals per group, were administered with Compound 1 (12.5, 25, 50, 75 and 100 mg/kg) 1 hr prior to placing each in an open field. Mice were monitored for 1 hr (every 5 minutes) using the Noldus system, and their distance moved, velocity, time of immobility and number of rearings was recorded.
(§1) The effect of Compound 6 on the behavior of mice in the open field was also examined. Naïve male mice (Balb/c, Harlan Israel) were used. Animals (6 per group) were administered with Compound 6 (12.5, 25 and 50 mg/kg, i.p.) 1 hr prior to placing each in the open field. Mice were followed for 1 hr (every 5 minutes) using the Noldus system, and their distance moved, velocity, time of immobility and number of rearings was recorded.
The effect of oral administration of Compound 1 in the open field was tested by orally administering to male ICR mice varying amounts of Compound 1 (5, 10 and 20 mg/kg) or vehicle. Animals were placed in the open field 1 hr after drug administration and horizontal and vertical behavior was recorded for 20 minutes.
as §1, with “The dose-dependent” for “The”, “3 administered i.p.” for “6 on the behavior of mice”, “tested.” for “examined.”, “Animals” for “Animals (6 per group)”, “3” for “6”, “i.p., 6 per group)” for “i.p.)”
Animals were administered orally with Compound 1 (5, 10 and 20 mg/kg) or with a vehicle. Animals were placed in the open field 1 hr after drug administration and animal track was registered for 20 minutes. The time spent in the center (zone 3) and the frequency to the center were indicators of anxiety.

[2] = test system: amphetamine-induced hyperactivity in mice; test: Amphetamine-induced hyperactivity and stereotypic behavior
Text: The amphetamine-induced hyperactivity and motility is one of the most popular animal models for schizophrenia (Pouzet B, et al., Effects of the 5-HT(7) receptor antagonist SB-258741 in animal models for schizophrenia. Pharmacol Biochem Behav April; 71(4):655-665, 2002 and Geyer, et al., Animal behavior models of the mechanisms underlying antipsychotic atypicalicity, Progress in Neuro-Psychopharmacol & Biological Psychiatry, 27, 1071-79, 2003). Amphetamines are known to augment dopaminergic and noradrenergic neurotransmission by inducing catecholamine release and preventing catecholamine reuptake
The experiment was conducted with ICR male mice placed in individual barrels. […] The locomotor activity, number of rearings and head movements was recorded every 15 minutes for 2 h.
As stated above, the amphetamine-induced hyperactivity and motility is one of the most popular animal models for schizophrenia. The experiment was conducted with ICR male mice placed in individual barrels. Compound 1 (20 mg/kg) was administered p.o to the mice 1 hr prior to i.p. administration of amphetamine (2. mg/kg). The hyper-active behavior expressed by the number of climbings and rearings and the stereotypic behavior expressed by the number of head movements was recorded every 15 minutes over a period of 1 h.
The effect of Compound 3 (12.5, 25 and 50 mg/kg, i.p.) on amphetamine-induced hyperactivity in Balb/c mice was also examined. Animals (6 per group) were injected with Compound 3 (12.5, 25 and 50 mg/kg) and 30 minutes later received amphetamine (2 mg/kg ip). After 30 minutes, animals were exposed to an open field test for a period of 20 minutes.

[3] = test system: MK-801-induced hyperactivity in mice; test: MK-801-induced hyperactivity in open field
Method: MK-801-Induced Stereotype Behavior in Rats (in Open Field)—
MK-801 is an analogue of PCP which inhibits NMDA receptors and elicits hyperlocomotion and stereotypic behavior in rodents and is used as an animal model of schizophrenia (Stephen, et al., Topiramate antagonizes MK-801 in an animal model of schizophrenia, Eur. J. Pharmacol. 449, 2002, 121-5). For experimentation, naïve Balb/c mice were used. MK-801 (0.15 mg/kg i.p) was administered 40 minutes after Compound 1 (or any one of the other compounds of the invention) or a vehicle, and 20 minutes prior to placing the mouse in an open field.
Animals placed in the open field were followed for 60 minutes and their distance moved, velocity, duration of immobility, and number of rearing events were registered using the Noldus system.
As stated above, MK-801 inhibits NMDA receptors and elicits hyperlocomotion. Therefore, where an antagonism of the hyperactivity-induced by the MK-801 is observed upon administration of a compound of the invention, it is an indication as to the positive modulation of the NMDA activity. In other words, such a compound may be considered as useful in the treatment of schizophrenia.
The effect of Compound 6 on the distance moved in Balb/c mice exposed to MK-801 ([…]) i.p. and to Compound 6 (up to 12.5 mg/kg, i.p.) administered 1 hr prior to MK-801 was also tested.
As stated above, MK-801 (an NMDA receptor antagonist) is a widely accepted animal model for schizophrenia. The experiment was conducted with Balb/c male mice (Harlan Il), 6 per group. Compound 1 (50 mg/kg) was administered i.p. (1 hr before experimentation), to mice alone or combined with MK-801 (0.15 mg/kg, i.p.) administered 20 minutes prior to placing the mice individually in an open field for 60 minutes. The hyper-active behavior expressed by hyperlocomotion, velocity, strong mobility, number of rearing was evaluated using the Noldus system, each point represents the mean+/−6 determinations.

[4] = test system: rats pretreated with MK-801; test: Morris Water Maze in rats pretreated with MK-801; conditions: rats, MK-801 alone 0.15 mg/kg i.p. on day 1
Method: (§2) The Morris Water Maze is a well known test aimed to assess spatial cognitive tasks (Anger, et al., Animal test systems to study behavioral dysfunctions of neurodegenerative disorders, Neurotoxicology, 12, 403-13 (1991)). The maze consists of a circular pool measuring 1.80 m in diameter 60 cm in height. The pool was filled with water (21±1° C.) to a depth of 30 cm. A circular hidden escape platform (10 cm in diameter) was placed just below the water surface. The test room contained several permanent extra maze cues such as the rat housing rack, laboratory table, posters on the walls, etc.
as §2, with “tasks.” for “tasks (Anger, et al., Animal test systems to study behavioral dysfunctions of neurodegenerative disorders, Neurotoxicology, 12, 403-13 (1991)).”
In the experiment rats were given Compound 1 orally on day 1 and the first test begun 90 minute later, six trials per day, for 3 consecutive days, to find the hidden platform (acquisition phase). The escape latency, i.e., the time required by the rat to find and climb onto the platform, was recorded for up to 120 sec. Each rat was allowed to remain on the platform for 30 sec, after which it was removed to its home cage.
A video camera was placed above the center of the pool for tracking the rat, and a video tracking system (Noldus) with online digital output directly fed data into a computer. Data were analyzed using EthoVision automated tracking system software (Noldus).
Compound 1 at both doses decreased the latency to the platform on day 3 of the experiment but not on days 1 and 2.
The relief of cognitive impairments was also shown in the use of Compound 6. […] Compound 6 at 10 mg/kg decreased the latency to the platform on days 2 and 3 of the experimentation.

[5] = Balb/c mice, 12.5, 25 and 50 mg/kg i.p.

Row | Structure (SMILES) | motility parameters ([1]; Balb/c mice, 50 mg/kg i.p.) | duration of “not moving” periods [1, 5] | number of rearings vs. controls [1, 5] | motility (distance moved and velocity) ([1]; Balb/c mice, up to 25 mg/kg i.p.) | distance moved, combined with amphetamine ([2]; Balb/c mice, 12.5 mg/kg i.p.) | distance moved, combined with amphetamine ([2]; Balb/c mice, 12.5, 25 and 50 mg/kg i.p. at -60 minutes) | immobility, combined with amphetamine ([2]; Balb/c mice, 12.5, 25 and 50 mg/kg i.p., amphetamine 2 mg/kg ip) | effect of amphetamine (hypermotility) ([2]; Balb/c mice, 12.5, 25 and 50 mg/kg i.p., amphetamine 2 mg/kg ip 30 minutes later, open field 20 minutes) | hyperactivity ensued by amphetamine ([2]; Balb/c mice, already at 12.5 mg/kg i.p., 12.5 mg/kg) | distance moved, combined with amphetamine ([2]; Balb/c mice, doses higher than 12.5 mg/kg i.p.) | MK-801-induced hyperactivity ([3]; Balb/c mice, 7.5 mg/kg) | MK-801-induced hyperactivity ([3]; Balb/c mice, 25 mg/kg) | MK-801-induced hyperactivity ([3]; Balb/c mice, 50 mg/kg) | MK-801-induced hyperactivity (distance moved) ([3]; Balb/c mice, 12.5, 25 and 50 mg/kg i.p., MK-801 0.15 mg/kg i.p.) | immobility (“not moving” total duration), MK-801 treated ([3]; Balb/c mice, high dose) | frequency to the center of the field, MK-801 treated ([3]; Balb/c mice, low dose) | time spent in the center, MK-801 treated ([3]; Balb/c mice, low dose) | immobility (“not moving” total duration), MK-801 treated ([3]; Balb/c mice, small and intermediate doses (25 mg/kg)) | memory tasks (latency to the platform) compared to normal controls [4]
1 | COC(=O)C(N)COCN1CCN(C2=Nc3ccccc3Nc3sc(C)cc32)CC1 (stereo not shown) [Compound 3] | marked decrease | dose dependently increased | decreased | mild decrease | normalization | dose-dependent decrease | dose-dependently increased | dose-dependently antagonized | effective; also recorded: antagonized | marked decrease | slight effect | normalization of activity | sedation | dose dependent decrease | appeared | tended to increase | tended to increase | not found | 
2 | C[C@]12N[C@H](Cc3ccccc31)c1ccccc12 [MK-801, reference compound] |  |  |  |  |  |  |  |  |  |  |  |  |  |  |  |  |  |  | significant impairment
